“Also recorded” adds a separate entry of the source.
Key:
gastrointestinal mucosa [1] = settings: rats; for Gastro-enteropathy (% incidence) without NEM: maximum tolerated dose
Description: The animals (rats) are distributed in the following groups (no. 10 animals for group):
• 1° group: treatment: only carrier (aqueous suspension 1% w/v of carboxymethylcellulose, dose: 5 ml/Kg when the drug is administered by os, or a physiologic solution when parenterally administered, i.e. by subcutaneous, intraperitoneal, intravenous or intermuscular route), • 2° group: treatment: carrier as above defined+NEM, B) Groups Treated with the Drug: • group I: treatment: carrier+drug, • group II: treatment: carrier+drug+NEM.
The administration routes are those known for the drug, and can be the oral or subcutaneous, intraperitoneal, intravenous or intramuscular route.
The animals are sacrificed after 24 hours and then one proceeds to the evaluation of the damage to the gastrointestinal mucosa.
Test 1—experimental model in vivo with N-ethylmaleimide (NEM): study of the gastric tolerability of some drugs screened as precursors of the compounds of the invention.
The animals (rats, weight about 200 g) are distributed in the following groups (No. 10 animals for group):
• 1° group: treatment: only carrier (aqueous suspension 1% w/v of carboxymethylcellulose, dose: 5 ml/Kg when the drug is administered by os, physiologic solution when by parenteral route), • 2° group: treatment: carrier+NEM, B) Groups Administered with Each Drug: • group I: treatment: carrier+drug, • group II: treatment: carrier+drug+NEM.
The drug is administered one hour later, in suspension in the carrier. Animals are sacrificed after 24 hours and evaluation of the damage to the gastrointestinal mucosa is made by counting the number of rats, inside each group, with lesions to the stomach at a visual inspection. The total number of said rats is then divided by the total number of rats of the group and multiplied by 100.

[2] = system: gastrointestinal mucosa, liver (GPT), vascular endothelium (blood pressure); settings: rat, in vivo; for Gastroenteropathy % without L-NAME: 4 weeks
Description: The endothelial dysfunction is evaluated by determining the damage to the gastrointestinal mucosa, the hepatic damage and blood hypertension induced by administration of L-NAME.
The animals (rats) are divided in groups as herein below shown. The group receiving L-NAME is treated for 4 weeks with said compound dissolved at a concentration of 400 mg/liter in drinking water. The following groups are constituted (No. 10 animals for group):
(§1) • 1° group: only carrier (aqueous suspension 1% w/v of carboxymethylcellulose, dose: 5 ml/Kg when the drug is administered by os, physiologic solution when administered parenterally), • 2° group: carrier+L-NAME, B) Groups Administered with the Drug: • 3° group: carrier+drug, • 4° group: carrier+drug+L-NAME.
The administration routes are those known for the drug, and can be the oral or subcutaneous, intraperitoneal, intravenous or intramuscular route. […] The drug is administered once a day for 4 weeks.
At the end of the four weeks treatment access to water is prevented and after 24 hours the animals are sacrificed.
One hour before the sacrifice blood-pressure is determined, and a blood pressure increase is taken as an evaluation of the damage to vascular endothelium. […] The hepatic damage is determined by evaluation of the glutamic-pyruvic transaminase (GPT increase) after sacrifice.
Test 3—experimental in vivo model with N^w-nitro-L-arginine-methyl ester (L-NAME): gastric tolerability (gastrointestinal damage incidence), hepatic (GPT dosage, glutamic-pyruvic transaminase) and cardiovascular (blood pressure) of some drugs screened as precursors of the compounds of the invention.
The endothelial dysfunction is evaluated by determining the damage induced by L-NAME administration to the gastrointestinal mucosa, the hepatic damage (GPT increase), and the vascular endothelium or cardiovascular damage as blood hypertension.
The animals (rats, average weight 200 g) are divided in groups as herein below described. The group receiving L-NAME is treated for 4 weeks with said compound dissolved at the concentration of 400 mg/liter in drinking water. The following groups (No. 10 animals for group) are constituted:
as §1, with “group: treatment:” for “group:”, “by parenteral route),” for “administered parenterally),”, “Treated” for “Administered”
Each drug is administered once a day for 4 weeks.
The maximum tolerated dose of the drug being administered to the animals is determined by evaluating, in a separate dose scaling up experiment on untreated animals, the appearance in the animals of symptoms such as enteropathy, diarrhoea, depression, tremor, sedation.
At the end of the four weeks access to water is prevented and after 24 hours the animals are sacrificed.
One hour before the sacrifice blood pressure is determined and a blood pressure increase is taken as an indication of a damage being occurred to vascular endothelium.
The hepatic damage is determined by evaluation after the sacrifice of the glutamic-pyruvic transaminase (GPT increase).
The % gastric lesions have been determined as in Test 1.

[3] = system: human endothelial cells of the umbilical vein; experiment: Test 2 (CIP): apoptosis (DNA fragmentation) induced by cumene hydroperoxide in endothelial cells; format: cell-based; settings: drug 10^-4 M, CIP 5 mM; for Apoptosis % with respect to the controls treated only with CIP / activity at 100 µM: one hour; for activity at 100 µM: Homo sapiens, Endothelial cell, 1 h, read-out: Apoptosis % with respect to the controls treated only with CIP
Description: Test 2 (CIP): Protection parameter of endothelial cell against the oxidative stress induced by cumene hydroperoxide (CIP).
Human endothelial cells of the umbilical vein are prepared according to an usual standard procedure. Fresh umbilical veins are filled with a 0.1% by weight collagenase solution and incubated at 37° C. for 5 minutes.
The cells are collected from the perfusate by centrifugation and harvested in culture flasks T-75, pretreated with human fibronectin. The cells are then harvested in the same medium, further added with 10 ng/ml of bovine hypothalamic growth factor. When the cells of the primary cell culture (i.e. that directly obtained from ex-vivo) form a single layer of confluent cells (about 8,000,000 cells/flask), the culture is stopped and the layers washed and trypsinized. The cellular suspensions are transferred into the wells of a cell culture plate having 24 wells, half of which is then additioned with the same culture medium containing the drug at a 10^−4M concentration, and harvested in a thermostat at 37° C. at a constant moisture. Only the cells coming from said first sub-cultures are used for the experiments with cumene hydroperoxide (CIP).
Before starting the test, the cellular culture medium is removed and the cellular layers are carefully washed with a physiologic solution at a temperature of 37° C. The wells of the culture plate are then incubated for one hour with CIP at a 5 mM concentration in the culture medium. […] 5 replicates for each sample are carried out.
Human endothelial cells of the umbilical vein are prepared according to a standard method. Fresh umbilical veins are filled with a collagenase solution 0.1% by weight and incubated at 37° C. for 5 minutes.
The cells are collected from the perfusate by centrifugation at 800 rpm and harvested in culture flasks T-75, pretreated with human fibronectin. Cells are then harvested in the same medium, added with bovine hypothalamic growth factor (100 ng/ml). When the cells of the primary cell culture (the cells directly removed from ex-vivo umbilical vein) form a single layer of confluent cells (about 8,000,000 cells/flask), harvesting is stopped and the layers are washed and trypsinized. The cellular suspensions are transferred into wells of a culture plate having 24 wells, half of said wells being added with the same culture medium containing the drug at a 10^−4M concentration, and harvested in a thermostat at 37° C. at a constant moisture (90%), CO2=5%. When the drug is not soluble in the culture medium, it is formerly dissolved in a small amount of dimethylsulphoxide. The maximum amount of dimethylsulphoxide which can be added to the culture medium is 0.5%. Only the cells coming from these first subcultures are used for the tests with cumene hydroperoxide (CIP).
Before starting the test, the cellular culture medium is removed and the cellular layers are carefully washed with a standard physiologic solution buffered with phosphate 0.1 M pH 7.0, at the temperature of 37° C. The content of each well is then incubated for one hour with a CIP suspension in the culture medium at a 5 mM concentration. Evaluation of the cellular damage (apoptosis) is carried out by determining the percent variation of the DNA fragmentation in the cultures containing the drug+CIP with respect to the controls treated with CIP only. […] The fluorescence of each sample was determined on 5 replicates. Statistic evaluation has been made with t Student test (p<0.01).

gastrointestinal mucosa [4] = settings: male, Wistar, rat, in vivo, 6 h
Description: Gastric lesions induced by administration of the compounds of the invention in the confront of the corresponding drug precursor.
The animals have been sacrificed 6 hours after the administration. The gastrointestinal mucosa has been removed and inspected. The incidence of the gastrointestinal damage has been evaluated as described in experiment F1.

erythrocytes = experiment: Test 4A: inhibition of erythrocyte haemolysis induced by cumene hydroperoxide; settings: 2 mM

CCCCC(C)(O)C/C=C/[C@H]1[C@H](O)CC(=O)[C@@H]1CCCCCCC(=O)OC (mixture of isomers) [Misoprostol]
Gastro-enteropathy (% incidence) without NEM (gastrointestinal mucosa [1]; 24 hours): 0% | Blood pressure % without L-NAME [2]: 100% | GPT % without L-NAME [2]: 100% | Gastroenteropathy % without L-NAME [2]: 0%

Nc1nc2c(ncn2COCCO)c(=O)[nH]1 [Acyclovir, aciclovir]
inhibition of apoptosis induced by CIP (in words, p<0.01) [3]: do not significantly inhibit apoptosis | Apoptosis % with respect to the controls treated only with CIP [3]: 95%

Nc1c(Br)cc(Br)cc1CN[C@H]1CC[C@H](O)CC1 [Ambroxol, ambroxol]
inhibition of apoptosis induced by CIP (in words, p<0.01) [3]: inhibit apoptosis | Gastropathy % incidence (gastrointestinal mucosa [4]): 60% | Gastro-enteropathy (% incidence) with NEM (gastrointestinal mucosa [1]; NEM 25 mg/kg s.c. one hour before drug, 24 hours): 80% | gastrointestinal damages / gastric lesions in rats treated with NEM + drug (in words) (gastrointestinal mucosa [1]; NEM 25 mg/kg s.c., drug at maximum tolerated dose): showed gastric lesions | Gastro-enteropathy (% incidence) without NEM (gastrointestinal mucosa [1]; 24 hours): 0%

O=C(O)COCCN1CCN(C(c2ccccc2)c2ccc(Cl)cc2)CC1 (centres unmarked) [Cetirizine, cetirizine]
inhibition of apoptosis induced by CIP (in words, p<0.01) [3]: do not significantly inhibit apoptosis

COC(=O)[C@H](c1ccccc1Cl)N1CCc2sccc2C1 [Clopidogrel]
inhibition of apoptosis induced by CIP (in words, p<0.01) [3]: do not significantly inhibit apoptosis | Apoptosis % with respect to the controls treated only with CIP [3]: 110%

O=C(O)Cc1ccccc1Nc1c(Cl)cccc1Cl [Diclofenac, diclofenac]
Gastropathy % incidence (gastrointestinal mucosa [4]): 70%

OCCNCCO [Diethanolamine]
inhibition of haemolysis induced by cumene hydroperoxide (in words) (erythrocytes): does not inhibit haemolysis | % Haemolysis inhibition (erythrocytes; preincubated 30 minutes, cumene hydroperoxide 270 μM, at Tmax): 2.5%

COc1cccc2c1C(=O)c1c(O)c3c(c(O)c1C2=O)C[C@@](O)(C(=O)CO)C[C@@H]3O[C@H]1C[C@H](N)[C@H](O)[C@H](C)O1 [Doxorubicin, doxorubicin]
activity at 100 µM [3]: 94% | Blood pressure % without L-NAME [2]: 120% | GPT % without L-NAME [2]: 195% | Gastroenteropathy % without L-NAME [2]: 30%

Nc1c(Br)cc(Br)cc1CN[C@H]1CC[C@H](OC(=O)CCCO[N+](=O)[O-])CC1 [Example 3, 4-(nitroxy)butyric acid 4-[(2-amino-3,5-dibromophenyl)methylamino] trans cyclohexyl ester]
Gastropathy % incidence (gastrointestinal mucosa [4]): 10%

O=C(CCCO[N+](=O)[O-])NCCCC(O)(P(=O)(O)O)P(=O)(O)O [Example 4, [4-[4-(nitroxy)butyroyl]amino-1-hydroxybutylidene]biphosphonic acid]
Gastropathy % incidence (gastrointestinal mucosa [4]): 10%

O=C(CCCO[N+](=O)[O-])Nc1c2c(nc3ccccc13)CCCC2 [Example 11]
Gastropathy % incidence (gastrointestinal mucosa [4]): 20%

COc1ccc2c(c1)c(CC(=O)O)c(C)n2C(=O)c1ccc(Cl)cc1 [Indomethacin]
inhibition of apoptosis induced by CIP (in words, p<0.01) [3]: not significantly different with respect to that of the controls | inhibition of apoptosis induced by CIP (in words, p<0.01) ([3]; listed as indomethacin): do not significantly inhibit apoptosis | Gastro-enteropathy (% incidence) without NEM (gastrointestinal mucosa [1]; 24 hours): 0%

Nc1ccc(O)c(C(=O)O)c1 [Mesalamine]
inhibition of apoptosis induced by CIP (in words, p<0.01) [3]: inhibit apoptosis; also recorded: inhibits the apoptosis induced by CIP | Gastro-enteropathy (% incidence) without NEM (gastrointestinal mucosa [1]; 24 hours): 0%

NC(=O)c1cccnc1 [Nicotinamide]
inhibition of apoptosis induced by CIP (in words, p<0.01) [3]: do not significantly inhibit apoptosis

COc1ccc2[nH]c([S+]([O-])Cc3ncc(C)c(OC)c3C)nc2c1 (centres unmarked) [Omeprazol]
inhibition of apoptosis induced by CIP (in words, p<0.01) [3]: do not significantly inhibit apoptosis | Gastro-enteropathy (% incidence) without NEM (gastrointestinal mucosa [1]; 24 hours): 0% | Blood pressure % without L-NAME [2]: 100% | GPT % without L-NAME [2]: 100% | Gastroenteropathy % without L-NAME [2]: 0%

CCC(C)(C)C(=O)O[C@H]1C[C@@H](C)C=C2C=C[C@H](C)[C@H](CCC3CC(O)CC(=O)O3)[C@H]21 (some centres unmarked) [Simvastatin, simvastatine]
activity at 100 µM [3]: 72%

CC1(C)S[C@@H]2[C@H](NC(=O)[C@H](N)c3ccccc3)C(=O)N2[C@H]1C(=O)O [ampicilline]
inhibition of apoptosis induced by CIP (in words, p<0.01) [3]: do not significantly inhibit apoptosis

enalapril
inhibition of apoptosis induced by CIP (in words, p<0.01) [3]: do not significantly inhibit apoptosis | Apoptosis % with respect to the controls treated only with CIP [3]: 80%

salbutamol
inhibition of apoptosis induced by CIP (in words, p<0.01) [3]: do not significantly inhibit apoptosis | Apoptosis % with respect to the controls treated only with CIP [3]: 90%
